The values that follow are results of earlier work, collected in US20240316119A1, “COMPOSITIONS AND METHODS FOR SUPPRESSING PATHOGENIC ORGANISMS” (VEDANTA BIOSCIENCES, INC., priority 2021, published 2024).

Each structure is given as a SMILES string.

The subject of the data set is Klebsiella pneumoniae and Citrobacter rodentium. To be noted: reported in Stacy et al. Cell. 2021 184(3):615-627.

`NCCS(=O)(=O)O` [taurine, 2-aminoethanesulfonic acid]: the “effect of supplying exogenous taurine alone on microbiota function and resistance to infection” value was “sufficient to induce this alteration in microbiota function and enhance resistance”.
